Laboratory results published in US12377110B2, “Fospropofol methods and compositions” (Epalex Corporation, priority 2019, dated 2025).

Tests used:
[1] = tested on: moderate to severe migraine headache; test: Study A17: clinical course (headache pain, most bothersome symptom, associated migraine symptoms); assay type: in vivo, human; conditions: 800 mg oral
Procedure: The study is planned to complete approximately 85 subjects. • Enrolled subjects will be asked to come to the study site for treatment when they experience a qualifying migraine headache. Dosing must occur within 4 hours after onset of the migraine symptoms. If treatment at the study site is not feasible or practicable within 4 hours after onset of migraine symptoms, subjects should use their usual medication for that headache and attempt to visit the clinic for treatment as soon as possible (within 4 hours) after onset of their next migraine headache. Dosing must occur within 60 days after enrollment (see Post-enrollment Period below). • At clinic check-in for treatment, study personnel will verify eligibility for closing regarding the criteria for a qualifying headache and adherence to post-enrollment study restrictions (see Eligibility for Dosing below). • Treatment will consist of a single oral dose of fospropofol disodium. […] Because the prevalence of migraine headaches is higher in women than in men, efforts will be made to enroll at least 50% women. • Subjects must meet the general inclusion and exclusion criteria listed below (Inclusion Criteria and Exclusion Criteria) at screening to be enrolled in the study. To be eligible for fospropofol disodium treatment after onset of a migraine headache, enrolled subjects must meet criteria specific to the presenting headache at clinic check-in (see Qualifying Headache below) and adhere to study restrictions specific to the period between enrollment and clinic check-in (see Post-enrollment Restrictions below). • Inclusion Criteria Subjects must meet all of the following criteria at screening to be enrolled in the study: • 1. Written informed consent approved by the Institutional Review Board (IRB) given before any study-related procedures are performed • 2. […] Complete abstinence alone can be used as a method of contraception. • 6. […] Able to comprehend the nature of the study, capable of giving written informed consent, and able to communicate effectively with clinic staff (as assessed by the investigator) • 8. Available to volunteer for the entire study duration and willing to adhere to all protocol requirements, including the post-enrollment restrictions (see Post-enrollment Restrictions below) • 9. Agrees not to post any information related to the study on any website or social media site (e.g., Facebook, Twitter, LinkedIn, Google+, etc.) until the entire trial has been completed • 10. Willing to forgo rescue medicine for at least 2 hours after initiation of treatment with study drug (see In-Clinic Rescue Medicine) • Exclusion Criteria Subjects to whom any of the following criteria apply at screening will be excluded: • 1. History of hemiplegic migraine (at any time in the past). • 2. History of headaches of any type occurring on ≥15 days/month during any of the 3 months prior to screening. • 3.

[2] = Linear regression of log fospropofol/propofol exposure (Cmax, AUC1, AUC2, AUC4) on time-to-treatment, migraine subjects vs healthy volunteers
Source text: (§1) Values for healthy volunteers are shown on the left.
as §1
Values for healthy Volunteers are shown on the left.
as §1, §1, §1

[3] = 1 hr postdose, No rescue, N = 18
[4] = 2 h postdose, No rescue, N = 18
[5] = 4 h postdose, No rescue, N = 18
[6] = 24 h postdose (D2), No rescue, N = 18
[7] = 24 h postdose (D2), Total, N = 18
[8] = 48 h postdose (D3), Rescue, N = 18
[9] = 48 h postdose (D3), Total, N = 18

CC(C)c1cccc(C(C)C)c1OCOP(=O)([O-])O.[Na+] [fospropofol disodium]
Sustained MBS-free response: No, % ([1]; 2-24 hours postdose, N = 18): (44.4) % | Sustained MBS-free response: Yes, % ([1]; 2-24 hours postdose, N = 18): (55.6) % | Sustained headache pain freedom: No, % ([1]; 2-24 hours postdose, N = 18): (77.8) % | Sustained headache pain freedom: Yes, % ([1]; 2-24 hours postdose, N = 18): (22.2) % | Sustained headache pain relief: No, % ([1]; 2-24 hours postdose, N = 18): (33.3) % | Sustained headache pain relief: Yes, % ([1]; 2-24 hours postdose, N = 18): (66.7) % | Sustained MBS-free response: No, % ([1]; 2-48 hours postdose, N = 18): (50) % | Sustained MBS-free response: Yes, % ([1]; 2-48 hours postdose, N = 18): (50) % | Sustained headache pain freedom: No, % ([1]; 2-48 hours postdose, N = 18): (83.3) % | Sustained headache pain freedom: Yes, % ([1]; 2-48 hours postdose, N = 18): (16.7) % | Sustained headache pain relief: No, % ([1]; 2-48 hours postdose, N = 18): (38.9) % | Sustained headache pain relief: Yes, % ([1]; 2-48 hours postdose, N = 18): (61.1) % | Most Bothersome Symptom: MBS free, % [1, 3]: (38.9) % | Most Bothersome Symptom: MBS present, % [1, 3]: (61.1) % | Severity of headache pain: Mild pain, % [1, 3]: (50.0) % | Severity of headache pain: Moderate pain, % [1, 3]: (33.3) % | Severity of headache pain: Pain free, % [1, 3]: (5.6) % | Severity of headache pain: Severe pain, % [1, 3]: (11.1) % | Most Bothersome Symptom: MBS free, % ([1]; 1 hr postdose, Total, N = 18): (38.9) % | Most Bothersome Symptom: MBS present, % ([1]; 1 hr postdose, Total, N = 18): (61.1) % | Severity of headache pain: Mild pain, % ([1]; 1 hr postdose, Total, N = 18): (50.0) % | Severity of headache pain: Moderate pain, % ([1]; 1 hr postdose, Total, N = 18): (33.3) % | Severity of headache pain: Pain free, % ([1]; 1 hr postdose, Total, N = 18): (5.6) % | Severity of headache pain: Severe pain, % ([1]; 1 hr postdose, Total, N = 18): (11.1) % | Headache Pain level 1 hr ([1]; 1 hr postdose, individual migraine subjects (N = 12)): Severe and Mild and None and Moderate | Most Bothersome Symptom: MBS free, % [1, 4]: (66.7) % | Severity of headache pain: Mild pain, % [1, 4]: (61.1) % | Severity of headache pain: Moderate pain, % [1, 4]: (16.7) % | Severity of headache pain: Pain free, % [1, 4]: (22.2) % | Most Bothersome Symptom: MBS free, % ([1]; 2 h postdose, Total, N = 18): (66.7) % | Most Bothersome Symptom: MBS present, % ([1]; 2 h postdose, Total, N = 18): (33.3) % | Severity of headache pain: Mild pain, % ([1]; 2 h postdose, Total, N = 18): (61.1) % | Severity of headache pain: Moderate pain, % ([1]; 2 h postdose, Total, N = 18): (16.7) % | Severity of headache pain: Pain free, % ([1]; 2 h postdose, Total, N = 18): (22.2) % | Headache Pain level 2 hr ([1]; 2 hr postdose, individual migraine subjects (N = 12)): Moderate and None and Mild | Most Bothersome Symptom: MBS free, % [1, 5]: (77.8) % | Severity of headache pain: Mild pain, % [1, 5]: (22.2) % | Severity of headache pain: Moderate pain, % [1, 5]: (5.6) % | Severity of headache pain: Pain free, % [1, 5]: (55.6) % | Most Bothersome Symptom: MBS free, % ([1]; 4 h postdose, Rescue, N = 18): (11.1) % | Most Bothersome Symptom: MBS present, % ([1]; 4 h postdose, Rescue, N = 18): (11.1) % | Severity of headache pain: Mild pain, % ([1]; 4 h postdose, Rescue, N = 18): (5.6) % | Severity of headache pain: Pain free, % ([1]; 4 h postdose, Rescue, N = 18): (11.1) % | Most Bothersome Symptom: MBS free, % ([1]; 4 h postdose, Total, N = 18): (88.9) % | Most Bothersome Symptom: MBS present, % ([1]; 4 h postdose, Total, N = 18): (11.1) % | Severity of headache pain: Mild pain, % ([1]; 4 h postdose, Total, N = 18): (27.8) % | Severity of headache pain: Moderate pain, % ([1]; 4 h postdose, Total, N = 18): (5.6) % | Severity of headache pain: Pain free, % ([1]; 4 h postdose, Total, N = 18): (66.7) % | Headache Pain level 4 hr ([1]; 4 hr postdose, individual migraine subjects (N = 12)): Moderate and None and Mild and Mild [b] | Severity of headache pain: Mild pain, % [1, 6]: (16.7) % | Severity of headache pain: Moderate pain, % [1, 6]: (11.1) % | Severity of headache pain: Pain free, % [1, 6]: (72.2) % | Severity of headache pain: Moderate pain, % ([1]; 24 h postdose (D2), Rescue, N = 18): (11.1) % | Severity of headache pain: Mild pain, % [1, 7]: (16.7) % | Severity of headache pain: Moderate pain, % [1, 7]: (22.2) % | Severity of headache pain: Pain free, % [1, 7]: (72.2) % | Most Bothersome Symptom: MBS free, % ([1]; 24 h postdose (Day 2), No rescue, N = 18): (72.2) % | Most Bothersome Symptom: MBS free, % ([1]; 24 h postdose (Day 2), Rescue, N = 18): (11.1) % | Most Bothersome Symptom: MBS free, % ([1]; 24 h postdose (Day 2), Total, N = 18): (83.3) % | Severity of headache pain: Pain free, % ([1]; 48 h postdose (D3), No rescue, N = 18): (83.3) % | Severity of headache pain: Mild pain, % [1, 8]: (11.1) % | Severity of headache pain: Moderate pain, % [1, 8]: (22.2) % | Severity of headache pain: Mild pain, % [1, 9]: (11.1) % | Severity of headache pain: Moderate pain, % [1, 9]: (22.2) % | Severity of headache pain: Pain free, % [1, 9]: (83.3) % | Most Bothersome Symptom: MBS free, % ([1]; 48 h postdose (Day 3), No rescue, N = 18): (66.7) % | Most Bothersome Symptom: MBS free, % ([1]; 48 h postdose (Day 3), Rescue, N = 18): (11.1) % | Most Bothersome Symptom: MBS free, % ([1]; 48 h postdose (Day 3), Total, N = 18): (77.8) % | Most Bothersome Symptom: MBS free, % ([1]; Discharge, No rescue, N = 18): (72.2) % | Severity of headache pain: Mild pain, % ([1]; Discharge, No rescue, N = 18): (11.1) % | Severity of headache pain: Pain free, % ([1]; Discharge, No rescue, N = 18): (66.7) % | Most Bothersome Symptom: MBS free, % ([1]; Discharge, Rescue, N = 18): (16.7) % | Severity of headache pain: Mild pain, % ([1]; Discharge, Rescue, N = 18): (5-6) % | Severity of headache pain: Pain free, % ([1]; Discharge, Rescue, N = 18): (11.1) % | Most Bothersome Symptom: MBS free, % ([1]; Discharge, Total, N = 18): (88.9) % | Severity of headache pain: Mild pain, % ([1]; Discharge, Total, N = 18): (16.7) % | Severity of headache pain: Pain free, % ([1]; Discharge, Total, N = 18): (77.8) % | Freedom from MBS at 2 hours: No, % ([1]; N = 18): (33.3) % | Freedom from MBS at 2 hours: Yes, % ([1]; N = 18): (66.7) % | Freedom from both migraine headache pain and MBS at 2 hours: No, % ([1]; N = 18): (77.8) % | Freedom from both migraine headache pain and MBS at 2 hours: Yes, % ([1]; N = 18): (22.2) % | Freedom from migraine headache pain at 2 hours: No, % ([1]; N = 18): (77.8) % | Freedom from migraine headache pain at 2 hours: Yes, % ([1]; N = 18): (22.2) % | MBS (Y/N) 1 hr ([1]; most bothersome symptom present, 1 hr postdose, individual migraine subjects (N = 12)): Yes and No | MBS (Y/N) 2 hr ([1]; most bothersome symptom present, 2 hr postdose, individual migraine subjects (N = 12)): No and Yes | MBS (Y/N) 4 hr ([1]; most bothersome symptom present, 4 hr postdose, individual migraine subjects (N = 12)): No and Yes and Yes [b]

CC(C)c1cccc(C(C)C)c1O [propofol, 2,6-diisopropylphenol]
p of inverse linear association between log of the ratio AUC1 propofol to AUC1 fospropofol and time-to-treatment ([2]; migraine subjects): 0.150 | p of inverse linear association between log of the ratio AUC2 propofol to AUC2 fospropofol and time-to-treatment ([2]; migraine subjects): 0.157 | p of difference in distribution of log of the ratio AUC1 propofol to AUC1 fospropofol between migraine subjects and healthy volunteers ([2]; migraine subjects vs healthy volunteers): 0.0367
